Results: EP4685136A1, “AMINO LIPID, AND LIPID NANOPARTICLES AND USE THEREOF” (Shenzhen MagicRNA Biotechnology Co., Ltd., priority 2023, dated 2024)

Experiments:
[1] = test system: C57BL/6 mice; test: In vivo delivery of luciferase mRNA by intramuscular injection of LNPs (IVIS imaging); settings: total fluorescence intensity, Luc mRNA LNP, 0.5 mg/kg mRNA, 12 hours
Description: Preparation of lipid nanoparticles: same as Example 36.
(§1) Animal preparation: 6-week-old female C57BL/6 mice weighing about 20 g were selected and raised in an SPF-grade feeding room. Animal experiments were conducted strictly in accordance with the guidelines of the National Institutes of Health and animal ethics requirements.
In vivo delivery: Five C57BL/6 mice were randomly selected from each group and injected with lipid nanoparticle solution at a dose of 0.5 mg/kg mRNA by intramuscular injection. Twelve hours later, 200 µL of 10 mg/mL D-luciferin potassium salt was injected into the peritoneal cavity of each mouse. Five minutes later, the mice were placed under an in vivo imaging system (IVIS-200, Xenogen) to observe the total fluorescence intensity of each mouse and take photos for recording. The expression intensity of Luc mRNA delivered by intramuscular injection of LNPs composed of representative amino lipid compounds is shown in Table 3, with DLin-MC3 and SM-102 as controls. Table 3 Expression intensity of Luc mRNA delivered by intramuscular injection of LNPs composed of representative amino lipids

[2] = Encapsulation efficiency of Luc-mRNA lipid nanoparticles (Quant-iT RiboGreen RNA Kit); type: physicochemical; settings: LNP of amino lipid:DSPC:cholesterol:DMG-PEG2000 47.5:10:41:1.5 with Luc-mRNA; lipid to mRNA mass ratio about 40:1
Description: (§2) The amino lipid compound of the present invention (or DLin-MC3 or SM-102 (both purchased from AVT (Shanghai) Pharmaceutical Technology Co., Ltd.)), phospholipid lipid (DSPC), cholesterol, and PEGylated lipid (DMG-PEG2000) were mixed and dissolved in anhydrous ethanol at a molar ratio of 47.5:10:41:1.5. The resulting ethanol solution and citric acid buffer (50 mM, pH = 4.0) dissolved with Luc-mRNA (TriLink) were mixed in a microfluidic chip at a volume ratio of 1:3 using a microfluidic preparation system to prepare a crude solution of lipid nanoparticles, which was then dialyzed in 1X PBS at 4°C for 6 h using a dialysis cassette (Fisher, MWCO 20,000). The product was filtered through a 0.22 µm microporous filter membrane before use. The mass ratio of the amino lipid compound to luciferase mRNA (Luc mRNA) was about 40:1.
The encapsulation efficiency was determined according to the standard procedure of the Quant-iT RiboGreen RNA Kit. Table 1 Characterization data of LNPs prepared using representative amino lipid compounds

[3] = Particle size and PDI of Luc-mRNA lipid nanoparticles (Nano-ZS ZEN3600, Malvern); type: physicochemical; settings: LNP of amino lipid:DSPC:cholesterol:DMG-PEG2000 47.5:10:41:1.5 with Luc-mRNA; lipid to mRNA mass ratio about 40:1
Description: as §2
The particle size and PDI (polydispersity index) of the prepared lipid nanoparticles were measured by Nano-ZSZEN3600 (Malvern). 20 µL of lipid nanoparticle (LNP) solution was taken for particle size measurement, and cycled three times with each cycle for 30 s.

[4] = test system: primary BMDC cells; test: Transfection of Luc mRNA lipid nanoparticles on primary BMDC cells (ONE-Glo luciferase readout); type: cell-based, C57BL/6 mice; settings: expression intensity of Luc mRNA on BMDCs; 10 µL LNP per well, 20,000 cells per well, 12 hours
Description: as §1
Cell acquisition: C57BL/6 mice were sacrificed by cervical dislocation and immersed in 75% alcohol for 5 minutes for disinfection. The thigh and tibia of the mice were dissected and the attached muscles were removed to expose the bone. The bone marrow in the tibia was blown out with a 1 mL syringe filled with PBS. The obtained bone marrow was dispersed by blowing and filtered through a 50 µm filter mesh to remove impurities. Red blood cell lysis solution (3-4 mL) was added to the obtained filtrate and allowed to stand for 5 minutes. Then, the supernatant was removed by centrifugation at 800 g for 5 minutes. The obtained cells were placed in 1640 culture medium (containing 10% fetal bovine serum, 20 ng/mL GMCSF, 10 ng/mL IL4) for being resuspended, and inoculated into 6-well plates at a density of 100,000 cells/mL of culture medium. The plates were placed in a cell culture incubator containing 5% CO2 at 37°C, and the medium was half-changed every 2 days. On the seventh day, the suspended cells and loosely adherent cells were collected and inoculated into 96-well all-white ELISA plates at a density of 20,000 cells per well, with a culture medium volume of 100 µL.
Cell transfection: the lipid nanoparticles encapsulating luciferase mRNA were added to a 96-well all-white ELISA plate with spreaded primary cells, and the volume of mRNA lipid nanoparticles added to each well was controlled to be 10 µL. Then, the plate was placed in an incubator with 5% CO2 concentration at 37°C for 12 hours.
Transfection efficiency detection: 20 µL of substrate ONE-Glo™ Luciferase was added to each well of a 96-well all-white ELISA plate, and the assay was performed using a multifunctional microplate reader (Biorek SynergyH1) after 1 min. The expression intensity of Luc mRNA transfected on BMDCs by lipid nanoparticles (LNPs) composed of representative amino lipid compounds is shown in Table 2, with DLin-MC3 and SM0102 as controls. Table 2 Expression intensity of transfection of representative amino lipid compounds on BMDCs

[5] = test system: B16-OVA melanoma cells; test: Tumor therapeutic effect of OVA mRNA LNP vaccine in B16-OVA melanoma-bearing mice; type: in vivo, C57BL/6 mice
Description: Preparation method: The amino lipid compound of the present invention was mixed with DSPC, cholesterol and DMG-PEG2000 at a molar ratio of 47.5:10:41:1.5 and dissolved in anhydrous ethanol. The obtained ethanol solution and citric acid buffer (50 mM, pH = 4.0) dissolved with OVA-mRNA were mixed in a microfluidic chip at a volume ratio of 1:3 using a microfluidic preparation system to prepare lipid nanoparticles, and then dialyzed in 1X PBS at 4°C for 6 h using a dialysis cassette (Fisher, MWCO 20,000) and filtered with a 0.22 µm microporous filter membrane before use. The mass ratio of the amino lipid compound to ovalbumin mRNA (OVA mRNA) was about 40: 1.
Animal preparation: Female C57BL/6 mice aged 5-6 weeks, weighing about 18-20 g were selected and kept in an SPF-grade feeding room. Animal experiments were conducted strictly in accordance with the guidelines of the National Institutes of Health and animal ethics requirements.
In vivo delivery: B16-OVA melanoma cells (1.5 × 10^5) were injected subcutaneously into the lateral thigh of mice. Vaccination was started when the tumor size reached 50 mm^3(approximately day 6 or 7 after tumor inoculation). Animals were immunized twice by intramuscular injection of LNP formulation containing 1 µg of OVA-mRNA, with an interval of the second injection from the first injection being 7 days. Tumor growth was measured three times per week using a digital caliper and calculated as 0.5 × length × width × width. Mice were euthanized when tumor volume reached 1500 mm^3.

Row | Encapsulation efficiency (%) [2] | Average particle size (nm) [3] | PDI [3] | SMILES | Fluorescence intensity [1] | Luminescence intensity [4] | mice achieved complete remission ([5]; two intramuscular injections 7 days apart of LNP containing 1 µg OVA-mRNA (Figure 3)) | tumor growth rate ([5]; two intramuscular injections 7 days apart of LNP containing 1 µg OVA-mRNA, compared with MC3 group (Figure 2))
1 | 98.5% | 103 nm | 0.07 | CCCCCCCCCCC(COC(=O)CCCCC)OC(=O)CCCCCN(CCCCCC(=O)OC(CCCCCCCCCC)COC(=O)CCCCC)CCCOC(=O)CCCCCCN(C)C (centres unmarked) [E12LA6B6O3A6] | 1.5E+09 |  |  | 
2 | 90.03% | 84 nm | 0.07 | CCCCCCCC(=O)OCC(CCCCCC)OC(=O)CCCCCN(CCCO)CCCCCC(=O)OC(CCCCCC)COC(=O)CCCCCCC (centres unmarked) [E8LA8B6O3] | 7.7E+08 | 1.3E+05 |  | 
3 | 98.26% | 75 nm | 0.08 | CCCCCCCCCCC(COC(=O)CCCCC)OC(=O)CCCCCN(CCCO)CCCCCC(=O)OC(CCCCCCCCCC)COC(=O)CCCCC (centres unmarked) [E12LA6B6O3] | 2.2E+09 |  | 100% | significantly slower than that of the MC3 group
4 | 89.74% | 72 nm | 0.12 | CCCCC/C=C\C/C=C\CCCCCCCCC(CCCCCCCC/C=C\C/C=C\CCCCC)OC(=O)CCCN(C)C [DLin-MC3, reference compound] | 7.6 E+08 | 4.1E+04 |  | 
5 | 92.23% | 71 nm | 0.11 | CCCCCCCCC(COC(=O)CCCCCCC)OC(=O)CCCCCN(CCCO)CCCCCC(=O)OC(CCCCCCCC)COC(=O)CCCCCCC (centres unmarked) [E10LA8B6O3] | 1.8E+09 |  |  | 
6 | 94.90% | 73 nm | 0.10 | CCCCCCCCCCC(COC(=O)CCCCCCC)OC(=O)CCCCCN(CCCO)CCCCCC(=O)OC(CCCCCCCCCC)COC(=O)CCCCCCC (centres unmarked) [E12LA8B6O3] | 8.2E+08 | 7.6E+04 |  | 
7 | 97.5% | 73 nm | 0.09 | CCCCCCCCCCCC(=O)OCC(CCCCCCCCCC)OC(=O)CCCCCN(CCCO)CCCCCC(=O)OC(CCCCCCCCCC)COC(=O)CCCCCCCCCCC (centres unmarked) [E12LA12B6O3] |  | 4.1E+05 |  | 
8 | 93.0% | 102 nm | 0.10 | CCCCCCCCCCC(COC(=O)CCCCC)OC(=O)CCCCCN(CCCCCC(=O)OC(CCCCCCCCCC)COC(=O)CCCCC)[C@H]1CC[C@H](O)CC1 (relative stereo) [E12LA6B6O10] | 1.6E+09 |  |  | 
9 | 95.6% | 132 nm | 0.09 | CCCCCCCCCCCC(=O)OCC(CCCCCCCCCC)OC(=O)CCCCCN(CCCCCC(=O)OC(CCCCCCCCCC)COC(=O)CCCCCCCCCCC)CCCNC(=O)CCCN(C)C (centres unmarked) [E12LA12B6O3A11] |  | 1.4E+05 |  | 
10 | 95.90% | 70 nm | 0.06 | CCCCCCCCCC(=O)OCC(CCCCCCCC)OC(=O)CCCCCN(CCCO)CCCCCC(=O)OC(CCCCCCCC)COC(=O)CCCCCCCCC (centres unmarked) [E10LA10B6O3] | 1.2E+09 | 6.9E+04 |  | 
11 | 92.4% | 121 nm | 0.14 | CCCCCCCCCCCC(=O)OCC(CCCCCCCCCC)OC(=O)CCCCCN(CCCCCC(=O)OC(CCCCCCCCCC)COC(=O)CCCCCCCCCCC)CCCC(=O)OCCCN(C)C (centres unmarked) [E12LA12B6O30A9] |  | 2.7 E+05 |  | 
12 | 98.8% | 129 nm | 0.08 | CCCCCCCCCCC(CCOC(=O)CCCCC)OC(=O)CCCCCN(CCCO)CCCCCC(=O)OC(CCCCCCCCCC)CCOC(=O)CCCCC (centres unmarked) [K3LA6B6O3] | 2.0E+09 | 5.4E+05 |  | 
13 | 95.8% | 69 nm | 0.06 | CCCCCCC(COC(=O)C(CCCCC)CCCCC)OC(=O)CCCCCN(CCCO)CCCCCC(=O)OC(CCCCCC)COC(=O)C(CCCCC)CCCCC (centres unmarked) [E8CA5B6O3] |  | 2.3E+05 |  | 
14 | 93.2% | 95 nm | 0.11 | CCCCCCCCCCC(COC(=O)CCCCC)OC(=O)CCCCCN(CCCCC)CCCCCC(=O)OC(CCCCCCCCCC)COC(=O)CCCCC (centres unmarked) [E12LA6B6O9] |  | 2.2 E+05 |  | 
15 | 97.8% | 117 nm | 0.08 | CCCCCCCCCCC(COC(=O)CCCCC)OC(=O)CCCCCN(CCCCCC(=O)OC(CCCCCCCCCC)COC(=O)CCCCC)CCCOC(=O)CCCCN(C)C (centres unmarked) [E12LA6B6O3A5] |  | 1.5 E+05 |  | 
16 | 96.2% | 106 nm | 0.03 | CCCCCCCCCCC(CCCCOC(=O)CCCCC)OC(=O)CCCCCN(CCCO)CCCCCC(=O)OC(CCCCCCCCCC)CCCCOC(=O)CCCCC (centres unmarked) [K5LA6B6O3] |  | 4.8E+05 |  | 
17 | 97.6% | 97 nm | 0.05 | CCCCCCCCCCC(COC(=O)CCCCC)OC(=O)CCCCCN(CCCCCC(=O)OC(CCCCCCCCCC)COC(=O)CCCCC)CCCN(C)C (centres unmarked) [E12LA6B6O12] |  | 4.9 E+04 |  | 
18 | 93.95% | 73 nm | 0.09 | CCCCCCCCCC(=O)OCC(CCCCCC)OC(=O)CCCCCN(CCCO)CCCCCC(=O)OC(CCCCCC)COC(=O)CCCCCCCCC (centres unmarked) [E8LA10B6O3] | 1.6E+09 | 5.2E+04 |  | 
